# Data taken from ChEMBL document CHEMBL3108671, “Differential Induction of Cytoplasmic Vacuolization and Methuosis by Novel 2-Indolyl-Substituted Pyridinylpropenones” (2014).
# Activity calls are given as the source filed them. The calls are words filed in the database; no cut-off is given here.
# Tests used:
# U-251 [1] = experiment: Induction of methuosis in human U251 cells assessed as decrease in cell proliferation at 10 uM after 2 days by phase-contrast microscopic analysis; assay type: functional, cell-based
# U-251 [2] = experiment: Induction of methuosis in human U251 cells assessed as heavily vacuolated cells at 10 uM after 1 day by phase-contrast microscopic analysis; assay type: functional, cell-based
# U-251 [3] = experiment: Growth inhibition of human U251 cells preincubated for 24 hrs followed by compound-washout measured at 48 hrs by sulforhodamine assay; assay type: functional
# U-251 [4] = experiment: Induction of methuosis in human U251 cells assessed as detachment of vacuolated cells at 10 uM after 2 days by phase-contrast microscopic analysis; assay type: functional, cell-based
# U-251 [5] = experiment: Induction of methuosis in human U251 cells assessed as sparse cells at 10 uM after 1 day by phase-contrast microscopic analysis; assay type: functional, cell-based
# U-251 [6] = experiment: Induction of methuosis in human U251 cells assessed as loss of membrane integrity at 10 uM after 2 days by phase-contrast microscopic analysis; assay type: functional, cell-based
GI50 (U-251 [3]),SMILES,Activity (U-251 [1]),Activity (U-251 [2]),Activity (U-251 [4]),Activity (U-251 [5]),Activity (U-251 [6])
16.9 µM,COc1ccc2[nH]c(C)c(/C=C/C(=O)c3cccnc3)c2c1,inactive,inactive,,,
18.6 µM,COc1ccc2[nH]cc(/C=C/C(=O)c3ccncc3)c2c1,inactive,Active,inactive,,
3.2 µM,CCc1[nH]c2ccc(OC)cc2c1/C=C/C(=O)c1ccncc1,,Active,Active,Active,Active
> 20 µM,COc1ccc2[nH]c(C(C)C)c(/C=C/C(=O)c3ccncc3)c2c1,inactive,Active,inactive,,
16.6 µM,COc1ccc2[nH]c(CC(C)C)c(/C=C/C(=O)c3ccncc3)c2c1,inactive,Active,inactive,,
15.3 µM,CCCc1[nH]c2ccc(OC)cc2c1/C=C/C(=O)c1ccncc1,inactive,Active,inactive,,
